Experimental data reported in patent US8853235B2, “Polymorphs and salts of a kinase inhibitor” (Senhwa Biosciences, Inc., priority 2009, dated 2014).
Several values for one entry are separate records, joined by “and”; a condition that tells them apart may be missing. Equal entries are not always repeated. Values belong to the molecule of their own block, whether it stands above or below them.

Assays:
Format in all cases: physicochemical
[1] = Short term accelerated stability study of Arginine and TRIS salts; details: 40° C./75% RH; for change by XRPD and DSC: 4 week period; for HPLC impurity after storage: after 4 weeks
Description: Arginine and TRIS salts of compound I prepared as described above were stored at 40° C./75% RH. Each sample was assessed at 0,1 week, 2 weeks and 4 weeks by XRPD, DSC and HPLC assess the stability of each salt.

[2] = Micronization of Arginine and TRIS salts, physical form check; details: micronized vs pre-micronized
Source text: Both Arginine and TRIS salt forms of compound I prepared as described above were micronized at Pharmaterials in preparation for PK studies. Particle size reduction was done using a Sturtevant Qualification Micronizer® (Sturtevant Inc. Hanover Mass., USA) with dry nitrogen gas as feed and grind gas. To avoid clogging of the venturi and feed nozzle, the polymorph was initially ground using a pestle and motor to break down large particles. Grinding was done at room temperature using the following settings: • Feed air pressure: 80 psi • Grind air pressure: 100 psi
The micronized polymorph was collected from the exhaust bag and put in a glass vial pending further analysis. The material was then analyzed for particle size distribution based on a method established and applied to each batch. […] The samples were also analyzed by HPLC to determine chemical purity.

[3] = Determination of particle size distribution (Malvern Mastersizer); details: for d50, 3 times / d90, 3 times: single measurements
Description: Particle size analysis of the pre-milled and post-milled TRIS and arginine salts was carried out using the Malvern Mastersizer, Model Micro Plus. Backgrounds were first measured using the appropriate vehicle solution as diluent (Dimethyl Siloxane). The samples were added drop-wise until a suitable obscuration value was achieved, and particle size distribution measured. A minimum of three analyses were made for each sample.

[4] = Slurry of Arginine and TRIS salts to determine stability (competitive slurry); details: for relative stability of the two forms: competitive slurry, MeOH/H2O (90:10) and EtOH/H2O (90:10); for form after slurry by XRPD: MeOH/H2O (90:10), temperature cycling 40° C. and RT, 4 hour periods, 5 days
Source text: Both Arginine and TRIS salt forms of compound I prepared as described above were slurried in 2˜4 different solvents including aqueous mixes to further determine the stability of the new salt forms. The solids were then dried and analyzed by XRPD and Raman to check for changes in physical and/or chemical form.

[5] = Intrinsic solubility / dissolution rate of salts and polymorphs (FIGS. 82-83); details: qualitative; for ease of dissolution: FIGS. 82-83
[6] = Water solubility of compound (I) acid and its salts; details: qualitative, acid form vs salts
[7] = Gravimetric Vapor Sorption (GVS) of sodium salt polymorphs; details: for XRPD analysis of the post-GVS experiment sample: after GVS; for GVS desorption: sample retains water until: mass drops significantly there; for hydroscopicity by GVS: qualitative
[8] = Storage, drying and light stability of sodium salt forms, by XRPD; details: for physical change in light study by XRPD: 5 day light studies; for time in which material reverts to Form II: 5 day stability study, 40° C./75% RH; for physical change on storage by XRPD: about 80° C. over about 5 days
[9] = Solubility in organic solvents, sodium salt vs free acid (FIG. 81); details: compared with the acid

SMILES: O=C(O)c1ccc2c(c1)nc(Nc1cccc(Cl)c1)c1ccncc12 [Form XXI, 5-(3-chlorophenylamino)benzo[c][2,6]naphthyridine-8-carboxylic acid]
change by XRPD and DSC [1]: no significant change
HPLC impurity after storage [1]: no additional impurity
DSC change after micronization [2]: no significant change
XRPD change after micronization [2]: no significant change in crystalline structure
d50, Average ([3]; micronized): 4.1 μm
d90, Average ([3]; micronized): 8.0 μm
d50, 3 times ([3]; micronized): 3.98 μm and 4.04 μm and 4.14 μm
d90, 3 times ([3]; micronized): 7.90 μm and 7.94 μm and 8.13 μm
d50, Average ([3]; pre-micronized): 21.6 μm
d90, Average ([3]; pre-micronized): 71.0 μm
d50, 3 times ([3]; pre-micronized): 19.97 μm and 21.13 μm and 23.60 μm
d90, 3 times ([3]; pre-micronized): 62.36 μm and 70.79 μm and 79.85 μm
relative stability of the two forms [4]: more stable
ease of dissolution [5]: particularly easily dissolved

SMILES: O=C(O)c1ccc2c(c1)nc(Nc1cccc(Cl)c1)c1ccncc12 [Compound I, 5-(3-chlorophenylamino)benzo[c][2,6]naphthyridine-8-carboxylic acid]
water solubility [6]: very low

SMILES: O=C(O)c1ccc2c(c1)nc(Nc1cccc(Cl)c1)c1ccncc12 [Form IV, 5-(3-chlorophenylamino)benzo[c][2,6]naphthyridine-8-carboxylic acid]
GVS uptake of water on sorption ([7]; about 20-60% RH): about 1%
GVS further rapid uptake ([7]; about 60-70% RH): approximately 8%
XRPD analysis of the post-GVS experiment sample [7]: amorphous content
GVS desorption: sample retains water until [7]: about 5%
physical change in light study by XRPD [8]: no physical change
time in which material reverts to Form II [8]: ≤ 24 h
physical change on storage by XRPD [8]: no physical change
form after drying ([8]; drying at 50° C.): converts to another crystalline polymorph

SMILES: O=C(O)c1ccc2c(c1)nc(Nc1cccc(Cl)c1)c1ccncc12 [Form II, 5-(3-chlorophenylamino)benzo[c][2,6]naphthyridine-8-carboxylic acid]
GVS uptake of water ([7]; 20-70% RH): about 12%
GVS weight gain ([7]; RH range of about 10% to about 70%): about 8%
form conversion in the GVS cycle ([7]; about 10% to about 90% RH, repeated): No further form conversion was observed
XRPD analysis of the post-GVS experiment sample [7]: amorphous content
hydroscopicity by GVS [7]: moderate
form after drying ([8]; 80° C. for about 24 hours and prolonged drying at 60° C.): converted to amorphous material
solubility relative to other polymorphs [5]: significantly more soluble than other polymorphs

SMILES: O=C(O)c1ccc2c(c1)nc(Nc1cccc(Cl)c1)c1ccncc12 [Form VII, 5-(3-chlorophenylamino)benzo[c][2,6]naphthyridine-8-carboxylic acid]
stability by XRPD ([8]; ambient conditions and 40° C./75% relative humidity, seven days): stable

SMILES: O=C(O)c1ccc2c(c1)nc(Nc1cccc(Cl)c1)c1ccncc12 [Form I, 5-(3-chlorophenylamino)benzo[c][2,6]naphthyridine-8-carboxylic acid]
physical form on storage ([8]; dry conditions less than 30° C.): stay amorphous
solubility in organic solvents [9]: more soluble in organic solvents than the acid
solubility relative to other polymorphs [5]: significantly more soluble than other polymorphs

SMILES: O=C(O)c1ccc2c(c1)nc(Nc1cccc(Cl)c1)c1ccncc12 [Form III, 5-(3-chlorophenylamino)benzo[c][2,6]naphthyridine-8-carboxylic acid]
XRPD analysis of the post-GVS experiment sample [7]: amorphous content
GVS desorption: sample retains water until [7]: 5%
hydroscopicity by GVS [7]: hydroscopic
GVS water absorbed on sorption ([7]; sorption): 11%
physical change in light study by XRPD [8]: no physical change
time in which material reverts to Form II [8]: ≤ 24 h
physical change on storage by XRPD [8]: less crystalline appearance

The next lines start with results.

change by XRPD and DSC [1]: no significant change
HPLC impurity after storage [1]: no additional impurity
DSC change after micronization [2]: no significant change
d50, Average ([3]; micronized): 6.0 μm
d90, Average ([3]; micronized): 10.5 μm
d50, 3 times ([3]; micronized): 6.12 μm and 6.03 μm and 5.99 μm
d90, 3 times ([3]; micronized): 10.72 μm and 10.51 μm and 10.41 μm
d50, Average ([3]; pre-micronized): 10.0 μm
d90, Average ([3]; pre-micronized): 23.4 μm
d50, 3 times ([3]; pre-micronized): 9.97 μm and 9.98 μm and 10.06 μm
d90, 3 times ([3]; pre-micronized): 23.26 μm and 23.15 μm and 23.68 μm
relative stability of the two forms [4]: more stable
ease of dissolution [5]: particularly easily dissolved
SMILES: O=C(O)c1ccc2c(c1)nc(Nc1cccc(Cl)c1)c1ccncc12 [Form XXII, 5-(3-chlorophenylamino)benzo[c][2,6]naphthyridine-8-carboxylic acid]
XRPD change after micronization [2]: no significant change in crystalline structure

form after slurry by XRPD [4]: complete conversion to Form XXII
SMILES: O=C(O)c1ccc2c(c1)nc(Nc1cccc(Cl)c1)c1ccncc12 [Form XXII-B, 5-(3-chlorophenylamino)benzo[c][2,6]naphthyridine-8-carboxylic acid]

form after slurry by XRPD [4]: complete conversion to Form XXI
SMILES: O=C(O)c1ccc2c(c1)nc(Nc1cccc(Cl)c1)c1ccncc12 [Form XXI-B, 5-(3-chlorophenylamino)benzo[c][2,6]naphthyridine-8-carboxylic acid]
